Data from PMC11643690, “Chelating Properties of N6O-Donors Toward Cu(II) Ions: Speciation in Aqueous Environments and Catalytic Activity of the Dinuclear Complexes” (Molecules, 2024).

How the values were obtained:
β-amyloid 1–40 peptide = target: T1, β-amyloid 1–40 peptide (Homo sapiens, UniProt P05067); assay: Thioflavin T (ThT) fluorescence aggregation assay; assay type: biochemical; conditions: [ThT] = 10 μM; [β-amyloid 1–40] = 10 μM; 10 μM test substance; PBS pH 7.4, 37 °C
T1 construct: β-Amyloid (1–40) was purchased from GenScript; purchased GenScript (Leiden, the Netherlands)
Method: To evaluate the anti-aggregation ability of the complexes, the β-amyloid 1–40 peptide was selected due to its higher solubility and slower aggregation rate compared to the full-length Aβ 1–42. Aggregation experiments were conducted using the Thioflavin T (ThT) fluorescence assay, which is a standard method to monitor amyloid aggregation. ThT binds specifically to amyloid fibrils, causing an increase in fluorescence intensity. If a complex inhibits peptide aggregation, the observed fluorescence increase will be lower compared to the reference, indicating inhibition.
In this experiment, the amyloid peptide was first dissolved in 1,1,1,3,3,3-hexafluoro-2-propanol (HFIP) to facilitate its unfolding. A 0.2 mM solution of the peptide was then prepared in 10 mM PBS (containing 100 mM NaCl, pH 7.4). To this solution, equimolar amounts of ThT (prepared in the same buffer) and the complex (dissolved in methanol) were added.
Aggregation test: ThT method
Amyloid peptides Aβ1-40 were used for this analysis. […]
• For the measurement, fluorescence spectra were recorded with a plate reader, using a Tecan […]
The fluorescence of sample solutions was monitored at 37° C over a period of about 30 hours, acquiring values every 20 minutes. The fluorescence variation of ThT was compared in the presence/ absence of amyloid/ ligands/ complexes.

[1] = UV–Vis titration of HL-CH3 with Zn(ClO4)2, binding constant; conditions: Zn(II); 0.1 mM ligand, 5% v/v MeOH/BBS 50 mM, pH 7.4
Method: To evaluate the selectivity of these ligands towards copper, the same titrations were performed with different metal salts: Fe(ClO4)2, Mn(ClO4)2, and Zn(ClO4)2, monitoring the methyl-substituted ligand (Figures S39–S41). These metal ions were chosen because they are also divalent and common in biological matrixes.
For the determination of the binding constant between metals and ligands, a solution of the latter was titrated with 0.2 eq of metal for each addition. The titrating solutions were 10 mM and 100 μM for Cu(ClO4)2 versus 0.1 mM and 1 μM for the ligands in 5% v/v MeOH/BBS (50 mM, pH 7.4), respectively. […] The absorbance variation was monitored from 200 nm to 800 nm at 25 °C. […]
UV-vis spectra of ligands and complexes were recorded in a quartz cuvette, with 1 cm of optical path. […]
The titrating solutions were 10 mM and 100 μM for Cu(ClO4)2 versus 0.1 mM and 1 μM for the ligands in 5% v/v MeOH/BBS (50 mM, pH 7.4), respectively. […] The absorbance variation was monitored from 200 nm to 800 nm with a Varian Cary 50 instrument, thermostated at 25 °C.
The binding constants were then determined by nonlinear regression analysis of the plot “ΔAbs/b vs Cu(II) concentration” (Equation 7 ), according to K. Connors, The Measurement of Molecular Complex Stability, Madison, Wisconsin, Wiley, 1987[5]. […]
ΔA: absorbance at a certain wavelength. […]

[2] = ESI-MS(+) competition with equimolar Cu, Fe, Mn, Zn perchlorates; assay type: binding; conditions: half an equivalent of ligand
Method: Equimolar solutions of Cu(ClO4)2, Fe(ClO4)2, Mn(ClO4)2, and Zn(ClO4)2 were prepared, and half an equivalent of HL-CH3 was added. The composition of the solution was then analyzed with ESI-MS to determine which species were formed. […] The most intense signal is the cluster at m/z = 855, referring to the species [Cu2(L-CH3)(ClO4)2]^+. Other signals are at m/z = 801 for [Cu2(L-CH3)(COO)(ClO4)]^+ and m/z = 351 for [Cu2(L-CH3)(ClO4)]^2+.

T1 sequence (P05067 672-711 limits assumed): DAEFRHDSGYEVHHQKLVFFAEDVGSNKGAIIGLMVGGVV

inhibition of Aβ 1–40 aggregation (ThT fluorescence) (β-amyloid 1–40 peptide): moderate inhibition
Kbind [1]: 2.49 × 10^8 M^−2
log(Kbind) [1]: 8.39
Compound: Cc1cc(CN(Cc2ccccn2)Cc2ccccn2)c(O)c(CN(Cc2ccccn2)Cc2ccccn2)c1 [HL-CH3, 2,6-bis[(bis(2-pyridylmethyl)amino)methyl]-4-methylphenol]
species formed in ESI-MS(+) spectrum [2]: only ascribable to the copper complex
